Experimental data taken from publication PMC4266648, “Metabolism of Skin-Absorbed Resveratrol into Its Glucuronized Form in Mouse Skin” (PLoS ONE, 2014).
“Also recorded” adds a separate entry of the source. Blank lines part the entries; values can stand above or below the compound they belong to.

Experiments:
[1] = tested on: HepG2 (human hepatoblastoma cells); assay: RESV metabolism in cell culture (LC-MS), HepG2; conditions: HepG2, 20 or 200 µM RESV, 4 h
Protocol: (§1) Cells were maintained in Dulbecco’s Modified Eagle Medium (DMEM) with 1% penicillin/streptomycin and 2 mM L-glutamine with some modifications as follows; DMEM (1.0 g/L glucose) with 10% fetal calf serum (FCS) for HepG2; DMEM (4.5 g/L glucose) with 10% FCS for HaCaT; DMEM (4.5 g/L glucose) with 20% FCS for C2C12. C2C12 cells were differentiated into myotubes by switching medium into DMEM containing 2% horse serum. Cells were plated on a 10 cm dish and allowed to adhere for 18 h. […] After 4 h incubation, cells were washed with PBS twice, followed by addition of 2 mL 50% ice-cold methanol. Collected cells were transferred into tubes on ice and further processed as described in metabolome sample preparation section.
(§2) After addition of internal standards (10 nmol HEPES and PIPES) to metabolome samples and brief vortexing, samples were transferred to Amicon Ultra 10 kDa cut-off filters (Millipore, Billerica, MA, USA) to remove proteins. […]
(§3) LC-MS data were obtained using a Paradigm MS4 HPLC system (Michrom Bioresources, Auburn, CA, USA) coupled to an LTQ Orbitrap mass spectrometer (Thermo Fisher Scientific, Waltham, MA, USA), as described previously [38]. […] Peak areas of metabolites of interest were measured using the MZmine 2.10 software [39] and normalized using the peak areas of HEPES and PIPES, as described in S2 Table.

[2] = tested on: HaCaT (human keratinocytes); assay: RESV metabolism in cell culture (LC-MS), HaCaT; conditions: 20 or 200 µM RESV, 4 h
Protocol: as §1, §2, §3

C2C12 (mouse myoblasts) = assay: RESV metabolism in cell culture (LC-MS), C2C12; conditions: C2C12, 20 or 200 µM RESV, 4 h
Protocol: as §1, §2, §3

[3] = Distribution of RESV metabolites in mouse tissues after oral and dermal administration (LC-MS); type: in vivo, mouse; conditions: for Tissue distribution of metabolite: hairless mice, 4 h after 1 mg RESV, both oral and skin administration
Protocol: Mice were separated from each other and could not lick RESV from their dorsal skin.
Mice were anesthetized with pentobarbital and blood was collected from the right ventricle. For metabolite extraction 0.2 mL of blood were mixed with 1.8 mL 55% methanol, pre-chilled to −40°C and kept until further processing as described in the metabolome sample preparation section. In addition to blood, metabolome samples were prepared from liver, dorsal skin, leg skin, and hind limb muscle.
Around 100 mg of each mouse tissue was dissected and weighed. Tissues were minced and homogenized for 3 min in 500 µL 50% methanol on ice using a BioMasher II (Nippi, Tokyo, Japan). Next, 1 mL 50% methanol and internal standards (10 nmol 4-(2-hydroxyethyl)-1-piperazineethanesulfonic acid (HEPES) and piperazine-N,N’-bis(2-ethanesulfonic acid) (PIPES)) were added to the samples. HEPES and PIPES were used as internal standards to correct for the variation of sample preparation and different detection efficiency. After brief vortexing, samples were centrifuged at 500 g for 10 min at 4°C. Supernatant was recovered for further processing as described in the metabolome sample preparation section (without the repeated addition of internal standards and vortexing).
Metabolome sample preparation was previously described.
Peaks were assigned to metabolites based upon their retention times and m/z values. Compounds were confirmed with standards (STD) or with analysis of MS/MS spectra (MS/MS), if no standard was available. In cases where no standard compound or MS/MS spectrum was available, compounds were identified by generating chemical formulae using m/z values in MZmine 2.10 module and given MS status. Data were analyzed using the scatter plot function built into MZmine 2.10 software, as well as by exporting the data to a spreadsheet.

TPA-induced ear edema = assay: TPA-induced ear edema; type: in vivo, mouse; conditions: for Ear thickness: 24 h after 1 µg TPA, before TPA 0.22 mm, TPA control 0.30 mm, female C57BL/6 mice
Protocol: The ear edema model was employed as previously described. Briefly, 1 µg 12-O-Tetradecanoylphorbol-13-acetate (TPA) was applied to the right ear of female C57BL/6 mice. Edema was evaluated by measuring ear thickness and ear weight. […] Ear thickness was measured with a micrometer before and 24 h after TPA treatment. After sacrificing mice with CO2, ear punch biopsies (6 mm diameter) were weighed.

[4] = RESV-treated mouse samples, LC-MS negative ionization mode

- Detection of metabolite (normalized peak area) in cells treated with RESV [1]: detected
- Detection of metabolite (normalized peak area) in cells treated with RESV [2]: detected
- Detection of metabolite (normalized peak area) in cells treated with RESV (C2C12 (mouse myoblasts)): detected
Compound: O=C(O)[C@H]1O[C@@H](Oc2cc(O)cc(/C=C\c3ccc(O)cc3)c2)[C@H](O)[C@@H](O)[C@@H]1O (relative stereo) [cis-RESV-3-O-GLUC, cis-Resveratrol-3-O-glucuronide]

- Detection of metabolite in mouse and cell culture samples ([3]; mouse, in vivo): barely detected
Compound: O=C(O)[C@H]1O[C@@H](Oc2ccc(/C=C\c3cc(O)cc(O)c3)cc2)[C@H](O)[C@@H](O)[C@@H]1O (relative stereo) [cis-RESV-4-O-glucuronide, cis-resveratrol-4-O-glucuronide]

- Detection of metabolite (normalized peak area) in cells treated with RESV [1]: detected
- Detection of metabolite (normalized peak area) in cells treated with RESV [2]: detected
- Detection of metabolite (normalized peak area) in cells treated with RESV (C2C12 (mouse myoblasts)): detected
Compound: O=C(O)[C@H]1O[C@@H](Oc2cc(O)cc(/C=C/c3ccc(O)cc3)c2)[C@H](O)[C@@H](O)[C@@H]1O (relative stereo) [trans-RESV-3-O-GLUC, trans-resveratrol-3-O-glucuronide]

- Detection of metabolite in mouse and cell culture samples ([3]; mouse, in vivo): barely detected
Compound: O=C(O)[C@H]1O[C@@H](Oc2ccc(/C=C/c3cc(O)cc(O)c3)cc2)[C@H](O)[C@@H](O)[C@@H]1O (relative stereo) [trans-RESV-4-O-glucuronide, trans-resveratrol-4-O-glucuronide]

Compound: Oc1ccc(/C=C/c2cc(O)cc(O)c2)cc1 [RESV, trans-resveratrol]
- Ear weight (TPA-induced ear edema; 6 mm ear punch 24 h after TPA, 1 mg RESV oral, TPA-treated mice 9.4 mg): 8.1 mg
- Ear thickness (TPA-induced ear edema; 1 mg RESV applied topically to ear 30 min after TPA): 0.21 mm
- Ear thickness (TPA-induced ear edema; 1 mg RESV orally 30 min after TPA): 0.26 mm

Compound: Dihydroresveratrol- glucuronide [DH-RESV-GLUC]
- Tissue distribution of metabolite [3]: detected in blood and liver as well as at lower levels in skin and muscle

Compound: Dihydroresveratrol- sulfoglucuronide [DH-RESV-SULF-GLUC]
- Reports and comments: samples in which the metabolite was detected [3, 4]: Detected in mouse liver samples

Compound: Dihydroresveratrol-sulfate [DH-RESV-SULF]
- Tissue distribution of metabolite [3]: detected mainly in liver and blood; also recorded: barely detectable in dorsal and leg skin, and muscle

- Reports and comments: samples in which the metabolite was detected ([3]; mouse, in vivo): Detected in mouse skin samples
Compound: Resveratrol-diglucuronide [RESV-DIGLUC]

Compound: Resveratrol-disulfate [RESV-DISULF]
- Reports and comments: samples in which the metabolite was detected [3, 4]: Detected in mouse blood and liver samples

Compound: Resveratrol-sulfoglucuronide [RESV-SULF-GLUC]
- Reports and comments: samples in which the metabolite was detected ([3]; mouse, in vivo): Azorin-Ortuno et al 2011 [4] (MS/MS data) Detected in blood mouse blood samples
